Reference: patent US9302999B2, “Substituted triazoles as herbicides” (E. I. DU PONT DE NEMOURS AND COMPANY, priority 2012, dated 2016)

How the values were obtained:
Assay type in all cases: in vivo
[1] = tested on: goosegrass (Eleusine indica); assay: Test C pre-/postemergence: goosegrass
Method in brief: (§1)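 Visual injury scored 0–100 (100 = complete control) against untreated controls after 13–15 greenhouse days. Surfactant-containing solvent formulations applied either to soil after sowing (loam/sand) or over 1- to 4-leaf plants, 2–18 cm tall.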

[2] = tested on: canarygrass (Phalaris minor); assay: Test C postemergence: canarygrass
Method in brief: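 Response values are visual ratings, 0 (no effect) to 100 (complete control), made by comparison with untreated controls 13 to 15 days after postemergence treatment of greenhouse-grown potted plants that were 2 to 18 cm high at spraying.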

[3] = tested on: chamomile (scentless chamomile, Matricaria inodora); assay: Test D pre-/postemergence: chamomile
Method in brief: (§2)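 Applied as a non-phytotoxic solvent formulation with surfactant, compounds were tested preemergence in silt loam and postemergence on seedlings 2 to 18 cm high in peat-vermiculite medium. Evaluation was visual, 0 meaning no effect and 100 complete control, at 14 to 21 days.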

[4] = tested on: mustard, wild (wild mustard, Sinapis arvensis); assay: Test D pre-/postemergence: mustard, wild
Method in brief: as §2

[5] = tested on: Russian thistle (Salsola kali); assay: Test C pre-/postemergence: Russian thistle; settings: Preemergence
Text: Seeds of plant species selected from blackgrass (Alopecurus myosuroides), bromegrass, downy (downy bromegrass, Bromus tectorum), foxtail, green (green foxtail, Setaria viridis), ryegrass, Italian (Italian ryegrass, Lolium multiflorum), winter wheat (Triticum aestivum), wild oat (Avena fatua), galium (catchweed bedstraw, Galium aparine), bermudagrass (Cynodon dactylon), surinam grass (Brachiaria decumbens), cocklebur (common cocklebur, Xanthium strumarium), corn (Zea mays), large crabgrass (Digitaria sanguinalis), woolly cupgrass (Eriochloa villosa), foxtail, giant (giant foxtail, Setaria faberii), goosegrass (Eleusine indica), johnsongrass (Sorghum halepense), kochia (Kochia scoparia), lambsquarters (Chenopodium album), morningglory (Ipomoea coccinea), nightshade (eastern black nightshade, Solanum ptycanthum), nutsedge, yellow (yellow nutsedge, Cyperus esculentus), pigweed (Amaranthus retroflexus), ragweed (common ragweed, Ambrosia elation), soybean (Glycine max), common (oilseed) sunflower (Helianthus annuus), Russian thistle (Salsola kali) and velvetleaf (Abutilon theophrasti) were planted into a blend of loam soil and sand and treated preemergence with test chemicals formulated in a non-phytotoxic solvent mixture which included a surfactant.
At the same time, plants selected from these crop and weed species and also barley (winter barley, Hordeum vulgare), canarygrass (Phalaris minor), chickweed (common chickweed, Stellaria media) windgrass (Apera spica-venti) and deadnettle (henbit deadnettle, Lamium amplexicaule) were planted in pots containing Redi-Earth® planting medium (Scotts Company, 14111 Scottslawn Road, Marysville, Ohio 43041) comprising spaghnum peat moss, vermiculite, wetting agent and starter nutrients and treated with postemergence applications of test chemicals formulated in the same manner. Plants ranged in height from 2 to 18 cm (1- to 4-leaf stage) for postemergence treatments.
Treated plants and controls were maintained in a greenhouse for 13 to 15 days, after which time all species were compared to controls and visually evaluated. Plant response ratings, summarized in Table C, are based on a scale of 0 to 100 where 0 is no effect and 100 is complete control. A dash (-) response means no test result.

[6] = tested on: cocklebur (common cocklebur, Xanthium strumarium); assay: Test C pre-/postemergence: cocklebur
Method in brief: as §1

[7] = tested on: sedge, umbrella (small-flower umbrella sedge, Cyperus difformis); assay: Test C flooded paddy test: sedge, umbrella; settings: Cyperus difformis, scale 0 to 100 (0 no effect, 100 complete control), read-out: Plant response rating, Sedge, Umbrella
Method in brief: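 Rating: visual, 0–100 (100 = complete control), versus untreated controls after 13 to 15 greenhouse days. Treatment went into paddy water held at 3 cm over the soil, on plants grown to two leaves.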

[8] = tested on: wheat, winter (winter wheat, Triticum aestivum); assay: Test D pre-/postemergence: wheat, winter
Method in brief: as §2

[9] = tested on: nightshade (eastern black nightshade, Solanum ptycanthum); assay: Test C pre-/postemergence: nightshade; settings: Preemergence
Method in brief: as §1

[10] = Postemergence, 31 g ai/ha, scale 0 to 100 (0 no effect, 100 complete control)
[11] = Postemergence, 62 g ai/ha, scale 0 to 100 (0 no effect, 100 complete control)
[12] = Postemergence, 125 g ai/ha, scale 0 to 100, 0 no effect, 100 complete control
[13] = Postemergence, 250 g ai/ha, scale 0 to 100
[14] = 125 g ai/ha, scale 0 to 100, 0 no effect, 100 complete control
[15] = Postemergence, 250 g ai/ha, scale 0 to 100 (0 no effect, 100 complete control)
[16] = Postemergence, 16 g ai/ha, scale 0 to 100
[17] = Preemergence, 16 g ai/ha, scale 0 to 100 (0 no effect, 100 complete control)
[18] = Preemergence, 31 g ai/ha, scale 0 to 100 (0 no effect, 100 complete control)
[19] = Preemergence, 62 g ai/ha, scale 0 to 100
[20] = Preemergence, 125 g ai/ha, scale 0 to 100
[21] = Preemergence, 250 g ai/ha, scale 0 to 100
[22] = 31 g ai/ha, scale of 0 to 100, 0 is no effect, 100 is complete control
[23] = 62 g ai/ha, scale of 0 to 100, 0 is no effect, 100 is complete control
[24] = 250 g ai/ha, scale 0 to 100, 0 no effect, 100 complete control
[25] = Preemergence, 31 g ai/ha, scale of 0 to 100, 0 is no effect, 100 is complete control

Cc1nn(-c2ccc(F)cc2)nc1Cc1ccnc(C(F)(F)F)c1 [Compound 16, 4-[[2-(4-fluorophenyl)-5-methyl-2H-1,2,3-triazol-4-yl]methyl]-2-(trifluoromethyl)pyridine]
Plant response rating, Goosegrass [1, 10]: 5
Plant response rating, Goosegrass [1, 11]: 5
Plant response rating, Goosegrass [1, 12]: 10
Plant response rating, Goosegrass [1, 13]: 10
Plant response rating, Canarygrass ([2]; 31 g ai/ha, scale 0 to 100 (0 no effect, 100 complete control)): 20
Plant response rating, Canarygrass ([2]; 62 g ai/ha, scale 0 to 100 (0 no effect, 100 complete control)): 60
Plant response rating, Canarygrass [2, 14]: 60
Plant response rating, Canarygrass ([2]; 250 g ai/ha, scale 0 to 100): 90
Plant response rating: Chamomile [3, 10]: 0
Plant response rating: Chamomile [3, 11]: 0
Plant response rating: Chamomile [3, 12]: 5
Plant response rating: Chamomile [3, 15]: 10
Plant response rating, Chamomile [3, 16]: 0
Plant response rating, Chamomile [3, 17]: 0
Plant response rating, Chamomile [3, 18]: 0
Plant response rating, Chamomile [3, 19]: 25
Plant response rating, Chamomile [3, 20]: 70
Plant response rating, Chamomile [3, 21]: 100
Plant response rating: Mustard, Wild [4, 11]: 90
Plant response rating: Mustard, Wild [4, 15]: 100
Plant response rating, Mustard, Wild [4, 16]: 10
Plant response rating, Mustard, Wild [4, 17]: 0
Plant response rating, Mustard, Wild [4, 18]: 0
Plant response rating, Mustard, Wild [4, 19]: 100
Plant response rating, Mustard, Wild [4, 20]: 100
Plant response rating, Mustard, Wild [4, 21]: 100
Plant response rating, Russian Thistle [5, 22]: 45
Plant response rating, Russian Thistle [5, 23]: 100
Plant response rating, Russian Thistle [5, 14]: 100
Plant response rating, Russian Thistle [5, 24]: 100
Plant response rating, Cocklebur [6, 10]: 35
Plant response rating, Cocklebur [6, 11]: 45
Plant response rating, Cocklebur [6, 12]: 45
Plant response rating, Cocklebur [6, 13]: 45
pest or weed control at 62 g/ha ([7]; Flood (flooded paddy test), 62 g ai/ha, visual rating after 13 to 15 days): 90%
pest or weed control at 125 g/ha ([7]; Flood (flooded paddy test), 125 g ai/ha, visual rating after 13 to 15 days): 95%
pest or weed control at 250 g/ha ([7]; Flood (flooded paddy test), 250 g ai/ha, visual rating after 13 to 15 days): 95%
pest or weed control at 31 g/ha ([7]; Flood, 31 g ai/ha): 80%
Plant response rating: Wheat, Winter [8, 10]: 10
Plant response rating: Wheat, Winter [8, 11]: 15
Plant response rating: Wheat, Winter [8, 12]: 20
Plant response rating: Wheat, Winter [8, 15]: 25
Plant response rating, Wheat, Winter [8, 16]: 5
Plant response rating, Wheat, Winter [8, 17]: 0
Plant response rating, Wheat, Winter [8, 18]: 0
Plant response rating, Wheat, Winter [8, 19]: 0
Plant response rating, Wheat, Winter [8, 20]: 0
Plant response rating, Wheat, Winter [8, 21]: 0

Cc1nn(-c2ccc(F)c(C(F)(F)F)c2)nc1Oc1ccnc(C(F)(F)F)c1 [Compound 147]
Plant response rating, Goosegrass [1, 25]: 98
Plant response rating, Goosegrass ([1]; Preemergence, 62 g ai/ha, scale of 0 to 100, 0 is no effect, 100 is complete control): 100
Plant response rating, Goosegrass ([1]; Preemergence, 125 g ai/ha, scale 0 to 100, 0 no effect, 100 complete control): 100
Plant response rating, Goosegrass ([1]; Preemergence, 250 g ai/ha, scale 0 to 100, 0 no effect, 100 complete control): 100
Plant response rating: Chamomile [3, 10]: 60
Plant response rating: Chamomile [3, 11]: 75
Plant response rating: Chamomile [3, 12]: 80
Plant response rating, Chamomile [3, 16]: 45
Plant response rating, Chamomile [3, 17]: 25
Plant response rating, Chamomile [3, 18]: 15
Plant response rating, Chamomile [3, 19]: 90
Plant response rating, Chamomile [3, 20]: 95
Plant response rating: Mustard, Wild [4, 10]: 100
Plant response rating: Mustard, Wild [4, 11]: 100
Plant response rating: Mustard, Wild [4, 12]: 100
Plant response rating, Mustard, Wild [4, 16]: 95
Plant response rating, Mustard, Wild [4, 17]: 55
Plant response rating, Mustard, Wild [4, 18]: 60
Plant response rating, Mustard, Wild [4, 19]: 100
Plant response rating, Mustard, Wild [4, 20]: 95
Plant response rating, Russian Thistle [5, 22]: 0
Plant response rating, Russian Thistle [5, 23]: 90
Plant response rating, Russian Thistle [5, 14]: 90
Plant response rating, Russian Thistle [5, 24]: 90
Plant response rating, Cocklebur [6, 25]: 35
Plant response rating, Nightshade [9, 22]: 98
Plant response rating, Nightshade [9, 23]: 98
Plant response rating, Nightshade [9, 14]: 98
Plant response rating, Nightshade [9, 24]: 98
Plant response rating: Wheat, Winter [8, 10]: 15
Plant response rating: Wheat, Winter [8, 11]: 15
Plant response rating: Wheat, Winter [8, 12]: 20
Plant response rating, Wheat, Winter [8, 16]: 10
Plant response rating, Wheat, Winter [8, 17]: 0
Plant response rating, Wheat, Winter [8, 18]: 0
Plant response rating, Wheat, Winter [8, 19]: 0
Plant response rating, Wheat, Winter [8, 20]: 5
